Measured values as given in ChEMBL document CHEMBL6127048, “Water-soluble and predictable-release triptolide prodrugs block bleomycin-induced pulmonary fibrosis in mice” (Eur J Med Chem, 2024).
In brackets after ≈: the same amount, converted by molar mass. Values belong to the compound of their own block, whether it stands above or below them. Activity calls are given as the source filed them. The rule behind the calls is not given here.

How the values were obtained:
[1] = tested on: Mus musculus; assay: Anti-fibrotic activity in bleomycin-induced pulmonary fibrosis C57BL/6 mouse model assessed as increase in body weight at 60 mg/kg, po pretreated with bleomycin for 5 days and followed by compound administration for 14 days; assay type: functional, organism-based; settings: time 14.0 day
[2] = tested on: Mus musculus; assay: Anti-fibrotic activity in bleomycin-induced pulmonary fibrosis C57BL/6 mouse model assessed as decrease in myofibroblast by measuring alpha-SMA level at 60 mg/kg, po pretreated with bleomycin for 5 days and followed by compound administration for 15 days; assay type: functional, organism-based; settings: time 15.0 day
[3] = tested on: Mus musculus; assay: Anti-fibrotic activity in bleomycin-induced pulmonary fibrosis C57BL/6 mouse model assessed as appearance of red collagen deposits in lung at 60 mg/kg, po pretreated with bleomycin for 5 days and followed by compound administration for 15 days by H and E staining based analysis; assay type: functional, organism-based; settings: time 15.0 day
[4] = tested on: Mus musculus; assay: Anti-fibrotic activity in bleomycin-induced pulmonary fibrosis C57BL/6 mouse model assessed as decrease in hydroxyproline level in lung at 60 mg/kg, po pretreated with bleomycin for 5 days and followed by compound administration for 15 days; assay type: functional, organism-based; settings: time 15.0 day
[5] = tested on: Mus musculus; assay: Anti-fibrotic activity in bleomycin-induced pulmonary fibrosis C57BL/6 mouse model assessed as decrease in lung index at 60 mg/kg, po pretreated with bleomycin for 5 days and followed by compound administration for 15 days; assay type: functional, organism-based; settings: time 15.0 day
[6] = tested on: Mus musculus; assay: Anti-fibrotic activity in bleomycin-induced pulmonary fibrosis C57BL/6 mouse model assessed as decrease in hydroxyproline level in lung at 60 mg/kg, po pretreated with bleomycin from day 1 and followed by compound administration for 15 days; assay type: functional, organism-based; settings: time 15.0 day
[7] = (§1) Prodrug conversion of the compound in phosphate buffer saline at pH 7.4 assessed as (6aS,7aS,8R,8aR,9aS,9bS,10aS,10bS)-8-hydroxy-8a-isopropyl-10b-methyl-2,5,5b,6,6a,8,8a,9a,9b,10b-decahydrotris(oxireno)[2',3':4b,5;2'',3'':6,7;2''',3''':8a,9]phenanthro[1,2-c]furan-3(1H)-one formation by measuring half life; assay type: ADME
[8] = Stability of compound in PBS buffer at pH 7.4 assessed as half life; assay type: physicochemical
[9] = tested on: Mus musculus; assay: Anti-fibrotic activity in bleomycin-induced pulmonary fibrosis C57BL/6 mouse model assessed as downregulation of sEphrin-B2 level in BALF at 0.33 to 0.66 mg/kg, ip pretreated with bleomycin for 5 days and followed by compound administration for 15 days by ELISA analysis; assay type: functional, organism-based; settings: dose 0.33-0.66 mg/kg, time 15.0 day
[10] = Half life in Kunming mouse at 1 mg/kg, iv measured upto 48 hrs by LC/MS analysis; assay type: ADME, organism-based; settings: in vivo
[11] = Cytotoxicity in human HLF upto 0.625 uM; assay type: toxicity, cell-based
[12] = Toxicity in C57BL/6 mouse assessed as change in creatinine level at 0.33 mg/kg, ip measured after 15 days; assay type: organism-based; settings: in vivo, 360 h, time 15 day
[13] = tested on: Mus musculus; assay: Anti-fibrotic activity in bleomycin-induced pulmonary fibrosis C57BL/6 mouse model assessed as decrease in hydroxyproline level in lung at 0.33 to 0.66 mg/kg, ip pretreated with bleomycin for 5 days and followed by compound administration for 15 days; assay type: functional, organism-based; settings: dose 0.33-0.66 mg/kg, time 15.0 day
[14] = tested on: Mus musculus; assay: Anti-fibrotic activity in bleomycin-induced pulmonary fibrosis C57BL/6 mouse model assessed as decrease in TGF-beta1 level in BALF at 0.66 mg/kg, ip pretreated with bleomycin from day 1 and followed by compound administration for 15 days by ELISA analysis; assay type: functional, organism-based; settings: time 15.0 day
[15] = Toxicity in C57BL/6 mouse assessed as pathological changes in kidney at 0.33 mg/kg, ip measured after 15 days; assay type: organism-based; settings: in vivo, 360 h, time 15 day
[16] = Toxicity in C57BL/6 mouse assessed as change in ALT level at 0.33 mg/kg, ip measured after 15 days; assay type: organism-based; settings: in vivo, 360 h, time 15 day
[17] = Stability in mouse plasma assessed as half life measured upto 24 hrs by HPLC analysis; assay type: ADME, cell-free
[18] = AUC (0 to infinity) in Kunming mouse at 1 mg/kg, iv measured upto 48 hrs by LC/MS analysis; assay type: ADME, organism-based; settings: in vivo
[19] = tested on: Mus musculus; assay: Anti-fibrotic activity in bleomycin-induced pulmonary fibrosis C57BL/6 mouse model assessed as downregulation of ADAM 10 level in BALF at 0.66 mg/kg, ip pretreated with bleomycin for 5 days and followed by compound administration for 15 days by ELISA analysis; assay type: functional, organism-based; settings: time 15.0 day
[20] = tested on: Mus musculus; assay: Anti-fibrotic activity in bleomycin-induced pulmonary fibrosis C57BL/6 mouse model assessed as decrease in lung index at 0.33 mg/kg, ip pretreated with bleomycin for 5 days and followed by compound administration for 15 days; assay type: functional, organism-based; settings: time 15.0 day
[21] = tested on: HLF; assay: Inhibition of sEphrin-B2 expression level in human HLF at 20 nM; assay type: functional, cell-based
[22] = tested on: Mus musculus; assay: Anti-fibrotic activity in bleomycin-induced pulmonary fibrosis C57BL/6 mouse model at 0.66 mg/kg, ip pretreated with bleomycin for 5 days and followed by compound administration for 15 days; assay type: functional, organism-based; settings: time 15.0 day
[23] = tested on: Mus musculus; assay: Anti-fibrotic activity in bleomycin-induced pulmonary fibrosis C57BL/6 mouse model assessed as increase in body weight at 0.33 mg/kg, ip pretreated with bleomycin for 5 days and followed by compound administration for 14 days; assay type: functional, organism-based; settings: time 14.0 day
[24] = tested on: Mus musculus; assay: Anti-fibrotic activity in bleomycin-induced pulmonary fibrosis C57BL/6 mouse model assessed as infiltrated interstitial matrix in lung at 0.33 mg/kg, ip pretreated with bleomycin for 5 days and followed by compound administration for 15 days by H and E staining based analysis; assay type: functional, organism-based; settings: time 15.0 day
[25] = tested on: HLF; assay: Upregulation of ADAM 10 expression in TGF-beta1-induced human HLF at 5 to 20 nM; assay type: functional, cell-based; settings: dose 5-20 nM
[26] = Toxicity in C57BL/6 mouse assessed as pathological changes in liver at 0.33 mg/kg, ip measured after 15 days; assay type: organism-based; settings: in vivo, 360 h, time 15 day
[27] = Toxicity in C57BL/6 mouse assessed as change in AST level at 0.33 mg/kg, ip measured after 15 days; assay type: organism-based; settings: in vivo, 360 h, time 15 day
[28] = tested on: Mus musculus; assay: Anti-fibrotic activity in bleomycin-induced pulmonary fibrosis C57BL/6 mouse model assessed as decrease in myofibroblast by measuring alpha-SMA level at 0.33 to 0.66 mg/kg, ip pretreated with bleomycin for 5 days and followed by compound administration for 15 days; assay type: functional, organism-based; settings: dose 0.33-0.66 mg/kg, time 15.0 day
[29] = Volume of distribution in Kunming mouse at 1 mg/kg, iv measured upto 48 hrs by LC/MS analysis; assay type: ADME, organism-based; settings: in vivo
[30] = Clearance in Kunming mouse at 1 mg/kg, iv measured upto 48 hrs by LC/MS analysis; assay type: ADME, organism-based; settings: in vivo
[31] = tested on: Mus musculus; assay: Anti-fibrotic activity in bleomycin-induced pulmonary fibrosis C57BL/6 mouse model assessed as appearance of red collagen deposits in lung at 0.33 mg/kg, ip pretreated with bleomycin for 5 days and followed by compound administration for 15 days by H and E staining based analysis; assay type: functional, organism-based; settings: time 15.0 day
[32] = tested on: Mus musculus; assay: Anti-fibrotic activity in bleomycin-induced pulmonary fibrosis C57BL/6 mouse model assessed as decrease in TGF-beta1 level in BALF at 0.66 mg/kg, ip pretreated with bleomycin for 5 days and followed by compound administration for 15 days by ELISA analysis; assay type: functional, organism-based; settings: time 15.0 day
[33] = tested on: Mus musculus; assay: Anti-fibrotic activity in bleomycin-induced pulmonary fibrosis C57BL/6 mouse model assessed as decrease in hydroxyproline level in lung at 0.33 to 0.66 mg/kg, ip pretreated with bleomycin from day 1 and followed by compound administration for 15 days; assay type: functional, organism-based; settings: dose 0.33-0.66 mg/kg, time 15.0 day
[34] = MRT (0 to t) in Kunming mouse at 1 mg/kg, iv measured upto 48 hrs by LC/MS analysis; assay type: ADME, organism-based; settings: in vivo
[35] = as §1, with “8” for “7.4”; assay type: ADME
[36] = tested on: Mus musculus; assay: Anti-fibrotic activity in bleomycin-induced pulmonary fibrosis C57BL/6 mouse model assessed as attenuation of collagen accumulation in lung at 0.33 mg/kg, ip pretreated with bleomycin for 5 days and followed by compound administration for 15 days by Masson staining based analysis; assay type: functional, organism-based; settings: time 15.0 day
[37] = as §1, with “6.5” for “7.4”; assay type: ADME
[38] = Toxicity in C57BL/6 mouse assessed as change in BUN level at 0.33 mg/kg, ip measured after 15 days; assay type: organism-based; settings: in vivo, 360 h, time 15 day
[39] = tested on: HLF; assay: Inhibition of TGF-betal induced alpha-SMA production in human HLF at 5 to 20 nM incubated for 2 hrs by DAPI staining based laser scanning confocal microscopic analysis; assay type: functional, cell-based; settings: dose 5-20 nM
[40] = tested on: Mus musculus; assay: Anti-fibrotic activity in bleomycin-induced pulmonary fibrosis C57BL/6 mouse model assessed as infiltrated interstitial matrix in lung at 60 mg/kg, po pretreated with bleomycin for 5 days and followed by compound administration for 15 days by H and E staining based analysis; assay type: functional, organism-based; settings: time 15.0 day
[41] = MRT(0 to infinity) in Kunming mouse at 1 mg/kg, iv measured upto 48 hrs by LC/MS analysis; assay type: ADME, organism-based; settings: in vivo
[42] = Solubility of compound in water by HPLC analysis; assay type: physicochemical
[43] = Stability in human plasma assessed as half life measured upto 24 hrs by HPLC analysis; assay type: ADME, cell-free

SMILES: COC(=O)c1ccc2c(c1)NC(=O)/C2=C(\Nc1ccc(N(C)C(=O)CN2CCN(C)CC2)cc1)c1ccccc1
- Activity [1]: Active
- Activity [2]: Active
- Activity [3]: Active
- Activity [4]: Active
- Activity [5]: Active
- Activity [6]: Active

SMILES: CC(C)[C@]12O[C@H]1[C@@H]1O[C@]13[C@]1(O[C@H]1C[C@H]1C4=C(CC[C@@]13C)C(=O)OC4)[C@@H]2OCOP(=O)([O-])[O-].[Na+].[Na+] [MINNELIDE]
- solubility [42]: 93.3 mg/mL

SMILES: CC(C)[C@]12O[C@H]1[C@@H]1O[C@]13[C@]1(O[C@H]1C[C@H]1C4=C(CC[C@@]13C)C(=O)OC4)[C@@H]2OC(=O)CCC(=O)[O-].[Na+] [OMTRIPTOLIDE SODIUM]
- solubility [42]: 1.39 mg/mL

SMILES: CC(C)[C@]12O[C@H]1[C@@H]1O[C@]13[C@]1(O[C@H]1C[C@H]1C4=C(CC[C@@]13C)C(=O)OC4)[C@@H]2OC(=O)NC1CCCCC1N (some centres not stated)
- half-life [8]: 1.85 h
- half-life [17]: 1.62 h
- solubility [42]: 6.96 mg/mL (≈ 13.9 mM)
- half-life [43]: 1.69 h

SMILES: CC(C)[C@]12O[C@H]1[C@@H]1O[C@]13[C@]1(O[C@H]1C[C@H]1C4=C(CC[C@@]13C)C(=O)OC4)[C@@H]2OC(=O)NCC1CCCN1 (some centres not stated)
- half-life [8]: 2.46 h
- half-life [17]: 1.79 h
- solubility [42]: 8.99 mg/mL (≈ 18.5 mM)
- half-life [43]: 1.45 h

Now from value to compound, other results behind:

- t1/2 [7]: 17.7 h
- half-life [8]: 17.7 h
- t1/2 [10]: 7.72 h
- half-life [17]: 17 h
- AUC(0-inf) [18]: 1100 ng·h/mL
- Vd [29]: 0.119 L/kg
- CL [30]: 15.2 mL/min/kg
- MRT last at 48 h [34]: 11.5 h
- t1/2 [35]: 4.52 h
- t1/2 [37]: 81.7 h
- MRT inf [41]: 14.8 h
- solubility [42]: 30.8 mg/mL (≈ 64.9 mM)
- half-life [43]: 16.4 h
SMILES: CNCCN(C)C(=O)O[C@@H]1[C@@]2(C(C)C)O[C@H]2[C@@H]2O[C@]23[C@]12O[C@H]2C[C@H]1C2=C(CC[C@@]13C)C(=O)OC2
- Activity [9]: Active
- Activity [11]: Non-Toxic
- Activity [12]: Non-Toxic
- Activity [13]: Active
- Activity [14]: Active
- Activity [15]: Non-Toxic
- Activity [16]: Non-Toxic
- Activity [19]: Active
- Activity [20]: Active
- inhibition [21]: Active
- Activity [22]: Active
- Activity [23]: Active
- Activity [24]: Active
- Activity [25]: Active
- Activity [26]: Non-Toxic
- Activity [27]: Non-Toxic
- Activity [28]: Active
- Activity [31]: Active
- Activity [32]: Active
- Activity [33]: Active
- Activity [36]: Active
- Activity [38]: Non-Toxic
- inhibition [39]: Active
- Activity [40]: Active

- half-life [8]: 25.2 h
- half-life [17]: 27.3 h
- solubility [42]: 12.5 mg/mL (≈ 28 mM)
- half-life [43]: 24.5 h
SMILES: CC(C)[C@]12O[C@H]1[C@@H]1O[C@]13[C@]1(O[C@H]1C[C@H]1C4=C(CC[C@@]13C)C(=O)OC4)[C@@H]2OC(=O)NCCN
